This passage reports inhibition results from ChEMBL document CHEMBL5653615 (J Biol Chem, 2013).

Experiment [1] addresses Activated CDC42 kinase 1 (Homo sapiens) (UniProt Q07912). In words: Inhibition of human ACK1 at 18.6 nM by HotSpot assay relative to control.
The target in experiment [2] is T1, Beta-adrenergic receptor kinase 1 (Homo sapiens) (UniProt P25098).
T1 sequence (whole entry): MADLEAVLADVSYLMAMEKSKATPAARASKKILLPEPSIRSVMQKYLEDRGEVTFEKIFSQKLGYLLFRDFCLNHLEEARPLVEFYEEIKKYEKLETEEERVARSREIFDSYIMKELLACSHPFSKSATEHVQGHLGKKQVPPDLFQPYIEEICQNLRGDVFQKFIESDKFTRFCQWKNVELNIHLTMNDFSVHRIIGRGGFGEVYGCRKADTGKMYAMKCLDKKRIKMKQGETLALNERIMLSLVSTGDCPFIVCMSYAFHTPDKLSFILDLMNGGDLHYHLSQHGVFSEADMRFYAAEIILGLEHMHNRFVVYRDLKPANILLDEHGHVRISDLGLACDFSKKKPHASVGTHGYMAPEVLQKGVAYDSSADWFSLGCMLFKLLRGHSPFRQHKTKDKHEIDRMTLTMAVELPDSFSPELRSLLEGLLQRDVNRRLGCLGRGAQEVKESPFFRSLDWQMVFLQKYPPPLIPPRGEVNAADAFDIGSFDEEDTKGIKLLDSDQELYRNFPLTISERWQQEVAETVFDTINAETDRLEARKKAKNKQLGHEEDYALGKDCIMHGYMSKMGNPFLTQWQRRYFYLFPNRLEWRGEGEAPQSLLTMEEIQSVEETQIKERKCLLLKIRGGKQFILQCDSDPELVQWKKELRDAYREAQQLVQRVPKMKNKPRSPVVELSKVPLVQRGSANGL
Put plainly: Inhibition of human GRK2 at 18.6 nM by HotSpot assay relative to control.

Experiment [3] deals with Serine/threonine-protein kinase 24 (Homo sapiens) (UniProt Q9Y6E0). Put plainly: Inhibition of human STK24 at 18.6 nM by HotSpot assay relative to control.
Experiment [4] addresses Casein kinase I isoform gamma-1 (Homo sapiens) (UniProt Q9HCP0). Put plainly: Inhibition of human CK1g1 at 500 nM by HotSpot assay relative to control.
Experiment [5] concerns the target T2, Dual serine/threonine and tyrosine protein kinase (Homo sapiens) (UniProt Q6XUX3).
T2 sequence (whole entry): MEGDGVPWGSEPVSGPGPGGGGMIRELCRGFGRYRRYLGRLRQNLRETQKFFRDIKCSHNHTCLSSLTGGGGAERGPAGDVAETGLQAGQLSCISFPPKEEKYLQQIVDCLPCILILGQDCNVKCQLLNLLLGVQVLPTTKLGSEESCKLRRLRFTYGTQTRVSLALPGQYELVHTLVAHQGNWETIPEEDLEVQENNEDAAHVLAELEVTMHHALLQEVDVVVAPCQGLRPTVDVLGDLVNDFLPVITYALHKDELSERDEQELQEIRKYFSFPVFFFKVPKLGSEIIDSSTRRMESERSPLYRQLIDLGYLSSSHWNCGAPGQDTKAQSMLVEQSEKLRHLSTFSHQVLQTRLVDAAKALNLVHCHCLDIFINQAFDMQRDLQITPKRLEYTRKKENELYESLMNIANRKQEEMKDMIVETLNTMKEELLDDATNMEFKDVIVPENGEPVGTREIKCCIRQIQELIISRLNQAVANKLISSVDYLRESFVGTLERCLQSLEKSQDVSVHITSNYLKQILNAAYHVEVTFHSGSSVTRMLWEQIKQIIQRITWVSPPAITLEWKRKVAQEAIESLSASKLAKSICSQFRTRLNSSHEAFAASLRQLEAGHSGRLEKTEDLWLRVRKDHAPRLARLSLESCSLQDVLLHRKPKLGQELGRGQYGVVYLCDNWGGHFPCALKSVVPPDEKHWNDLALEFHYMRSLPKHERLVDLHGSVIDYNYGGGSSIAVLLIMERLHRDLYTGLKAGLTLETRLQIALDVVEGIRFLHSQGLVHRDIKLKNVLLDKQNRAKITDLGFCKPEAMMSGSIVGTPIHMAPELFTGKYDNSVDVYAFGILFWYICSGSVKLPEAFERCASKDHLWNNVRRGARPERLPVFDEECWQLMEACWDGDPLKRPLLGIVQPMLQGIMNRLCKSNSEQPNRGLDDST
In words: Inhibition of human RIPK5 at 500 nM by HotSpot assay relative to control.

The target in experiment [6] is Death-associated protein kinase 2 (Homo sapiens) (UniProt Q9UIK4). In words: Inhibition of human DAPK2 at 1.82 nM by HotSpot assay relative to control.
Experiment [7] has as its target T3, Ephrin type-B receptor 3 (Homo sapiens) (UniProt P54753).
T3 sequence (whole entry): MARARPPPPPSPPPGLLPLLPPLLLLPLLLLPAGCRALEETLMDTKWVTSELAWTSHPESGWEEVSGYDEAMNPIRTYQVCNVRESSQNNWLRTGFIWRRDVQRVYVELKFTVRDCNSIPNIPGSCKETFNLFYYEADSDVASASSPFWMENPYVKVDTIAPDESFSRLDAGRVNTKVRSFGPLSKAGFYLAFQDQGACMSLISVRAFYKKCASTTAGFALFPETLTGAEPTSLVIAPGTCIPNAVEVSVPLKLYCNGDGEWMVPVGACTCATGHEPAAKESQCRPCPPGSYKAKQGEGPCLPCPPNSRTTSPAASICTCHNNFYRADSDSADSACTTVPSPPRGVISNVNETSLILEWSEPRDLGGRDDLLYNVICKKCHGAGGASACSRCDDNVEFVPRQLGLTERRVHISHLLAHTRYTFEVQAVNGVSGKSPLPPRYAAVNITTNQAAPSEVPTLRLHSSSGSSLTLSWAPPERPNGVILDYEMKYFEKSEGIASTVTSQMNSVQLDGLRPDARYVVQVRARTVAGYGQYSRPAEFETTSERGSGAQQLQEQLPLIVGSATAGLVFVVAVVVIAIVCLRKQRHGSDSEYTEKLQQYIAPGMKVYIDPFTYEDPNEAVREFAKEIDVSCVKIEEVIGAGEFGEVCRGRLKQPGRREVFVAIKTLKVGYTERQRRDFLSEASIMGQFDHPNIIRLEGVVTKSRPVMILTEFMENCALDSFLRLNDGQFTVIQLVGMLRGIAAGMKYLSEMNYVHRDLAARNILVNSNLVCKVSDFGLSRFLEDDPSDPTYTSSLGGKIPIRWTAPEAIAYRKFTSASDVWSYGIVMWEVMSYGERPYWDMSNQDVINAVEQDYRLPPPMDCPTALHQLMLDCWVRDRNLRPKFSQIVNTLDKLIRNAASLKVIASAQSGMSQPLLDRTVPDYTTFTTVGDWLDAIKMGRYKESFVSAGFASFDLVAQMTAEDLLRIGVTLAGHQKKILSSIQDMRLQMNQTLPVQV
Put plainly: Inhibition of human EPHB3 at 1.82 nM by HotSpot assay relative to control.

The target in experiment [8] is Serine/threonine-protein kinase 26 (Homo sapiens) (UniProt Q9P289). Put plainly: Inhibition of human MST4 at 1.82 nM by HotSpot assay relative to control.
Serine/threonine-protein kinase 26 (Homo sapiens), sequence (Q9P289 2-416 limits assumed): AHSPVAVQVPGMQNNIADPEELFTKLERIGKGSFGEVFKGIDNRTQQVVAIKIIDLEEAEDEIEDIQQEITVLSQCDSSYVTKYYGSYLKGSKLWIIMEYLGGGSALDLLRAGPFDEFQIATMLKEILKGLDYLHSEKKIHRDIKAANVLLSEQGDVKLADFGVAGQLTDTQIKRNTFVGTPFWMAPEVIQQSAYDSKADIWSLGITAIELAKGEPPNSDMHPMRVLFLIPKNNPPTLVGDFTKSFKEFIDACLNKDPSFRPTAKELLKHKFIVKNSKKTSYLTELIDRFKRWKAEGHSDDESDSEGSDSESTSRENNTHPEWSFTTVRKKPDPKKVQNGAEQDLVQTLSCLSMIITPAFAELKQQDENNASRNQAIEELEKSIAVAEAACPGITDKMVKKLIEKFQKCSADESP

Casein kinase I isoform gamma-1 (Homo sapiens), sequence (Q9HCP0 whole entry, looked up, canonical isoform): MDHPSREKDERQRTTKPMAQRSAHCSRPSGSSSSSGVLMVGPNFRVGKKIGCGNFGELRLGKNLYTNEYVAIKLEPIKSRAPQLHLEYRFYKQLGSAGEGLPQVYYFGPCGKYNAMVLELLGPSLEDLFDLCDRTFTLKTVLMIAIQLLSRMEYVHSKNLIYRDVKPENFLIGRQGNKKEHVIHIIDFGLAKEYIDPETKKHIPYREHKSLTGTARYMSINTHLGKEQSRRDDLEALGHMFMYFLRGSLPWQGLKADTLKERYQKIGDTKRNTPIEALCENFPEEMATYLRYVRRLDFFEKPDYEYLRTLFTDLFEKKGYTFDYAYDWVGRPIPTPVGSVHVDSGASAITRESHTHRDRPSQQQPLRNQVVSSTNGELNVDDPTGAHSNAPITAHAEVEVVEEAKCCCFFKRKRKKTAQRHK
Death-associated protein kinase 2 (Homo sapiens), sequence (Q9UIK4 whole entry, looked up): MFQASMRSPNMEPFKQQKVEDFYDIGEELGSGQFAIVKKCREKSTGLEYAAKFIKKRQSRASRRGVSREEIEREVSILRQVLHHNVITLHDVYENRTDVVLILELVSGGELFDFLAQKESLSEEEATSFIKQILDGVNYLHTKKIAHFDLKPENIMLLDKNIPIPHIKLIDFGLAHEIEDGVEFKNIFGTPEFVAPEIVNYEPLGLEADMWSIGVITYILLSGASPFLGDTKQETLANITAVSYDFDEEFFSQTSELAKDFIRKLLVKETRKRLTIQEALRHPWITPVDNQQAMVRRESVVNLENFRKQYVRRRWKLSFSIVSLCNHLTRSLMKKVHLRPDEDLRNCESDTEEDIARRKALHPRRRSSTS
Serine/threonine-protein kinase 24 (Homo sapiens), sequence (Q9Y6E0 whole entry, looked up, canonical isoform): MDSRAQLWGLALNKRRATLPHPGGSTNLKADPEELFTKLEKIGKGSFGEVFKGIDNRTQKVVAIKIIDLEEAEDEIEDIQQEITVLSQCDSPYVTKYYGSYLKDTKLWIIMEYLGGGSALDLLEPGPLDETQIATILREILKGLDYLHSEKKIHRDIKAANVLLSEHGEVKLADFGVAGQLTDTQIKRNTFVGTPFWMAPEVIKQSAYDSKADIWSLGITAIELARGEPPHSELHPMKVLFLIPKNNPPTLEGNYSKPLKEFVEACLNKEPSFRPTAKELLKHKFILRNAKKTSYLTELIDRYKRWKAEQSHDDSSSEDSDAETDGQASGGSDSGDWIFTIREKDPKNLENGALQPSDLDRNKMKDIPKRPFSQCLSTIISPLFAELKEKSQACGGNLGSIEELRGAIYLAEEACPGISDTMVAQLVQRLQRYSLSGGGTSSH
Activated CDC42 kinase 1 (Homo sapiens), sequence (Q07912 whole entry, looked up): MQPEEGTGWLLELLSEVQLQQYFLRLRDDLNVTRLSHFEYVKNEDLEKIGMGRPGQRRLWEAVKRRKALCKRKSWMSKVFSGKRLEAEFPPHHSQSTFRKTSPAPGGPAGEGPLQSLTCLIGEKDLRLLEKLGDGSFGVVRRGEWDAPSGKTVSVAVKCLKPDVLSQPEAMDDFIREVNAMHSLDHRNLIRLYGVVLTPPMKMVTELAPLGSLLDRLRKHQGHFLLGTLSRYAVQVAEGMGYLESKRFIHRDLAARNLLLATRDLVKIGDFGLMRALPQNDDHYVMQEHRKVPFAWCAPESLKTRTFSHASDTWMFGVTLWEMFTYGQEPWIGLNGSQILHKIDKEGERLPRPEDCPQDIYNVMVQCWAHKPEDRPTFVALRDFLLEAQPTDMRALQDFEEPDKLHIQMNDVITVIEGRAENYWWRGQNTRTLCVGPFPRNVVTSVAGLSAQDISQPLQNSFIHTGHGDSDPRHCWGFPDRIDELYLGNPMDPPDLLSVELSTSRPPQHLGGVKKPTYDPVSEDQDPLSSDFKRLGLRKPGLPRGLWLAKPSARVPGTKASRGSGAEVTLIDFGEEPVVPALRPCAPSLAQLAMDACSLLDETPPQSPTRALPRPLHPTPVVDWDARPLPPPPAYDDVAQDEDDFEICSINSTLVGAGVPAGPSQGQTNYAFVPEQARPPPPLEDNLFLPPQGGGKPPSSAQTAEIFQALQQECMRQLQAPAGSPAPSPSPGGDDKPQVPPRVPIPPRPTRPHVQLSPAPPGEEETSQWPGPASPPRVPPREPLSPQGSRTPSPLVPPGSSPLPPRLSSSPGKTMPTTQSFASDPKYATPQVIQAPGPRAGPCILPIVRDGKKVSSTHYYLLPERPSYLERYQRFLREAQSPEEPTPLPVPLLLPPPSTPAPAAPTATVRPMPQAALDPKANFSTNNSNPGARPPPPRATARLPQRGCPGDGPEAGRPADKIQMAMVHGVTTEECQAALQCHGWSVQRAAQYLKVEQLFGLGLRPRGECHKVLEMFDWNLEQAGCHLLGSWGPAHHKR

Consider `C[C@]1(O)C[C@@H](c2nc(-c3ccc4ccc(-c5ccccc5)nc4c3)c3c(N)nccn32)C1`, for which the values for the inhibition in experiment [1], in experiment [2] and in experiment [3] were 3%, -1% and 3.3%, respectively.

Regarding `Nc1n[nH]c2nnc(-c3c(-c4ccccc4)nn4ccccc34)cc12`, the inhibition is -3.88% in experiment [4] and 4.06% in experiment [5].

As to `C[C@@]1(C(=O)Nc2ccc(F)nc2)CCCN1c1nc(Nc2cc(C3CC3)n[nH]2)c2cccn2n1`, the inhibition in experiment [6] is -1.36%; in experiment [7] it was 2.89%; in experiment [8] it was -1.09%.

A word on the inhibition: it is the drop in the measured response relative to a control, in per cent.
